Test results as given in ChEMBL document CHEMBL1150011 (Bioorg Med Chem Lett, 1996).

Columns and labels:
Rattus norvegicus [1] = assay: Diuretic activity in rat was determined by measuring urine volume at a dose of 10 mg/kg upon oral administration; format: functional
Rattus norvegicus [2] = assay: Diuretic activity in rat was determined by measuring sodium excretion at a dose of 10 mg/kg upon oral administration; format: functional, Urine
Adenosine receptor A1 [3] = biological target: T1, Adenosine receptor A1 (Cavia porcellus, UniProt P47745); assay: Inhibition of adenosine induced negative inotropic activity against guinea-pig atria (Adenosine A1 receptor); format: functional
T1 sequence (P47745 whole entry): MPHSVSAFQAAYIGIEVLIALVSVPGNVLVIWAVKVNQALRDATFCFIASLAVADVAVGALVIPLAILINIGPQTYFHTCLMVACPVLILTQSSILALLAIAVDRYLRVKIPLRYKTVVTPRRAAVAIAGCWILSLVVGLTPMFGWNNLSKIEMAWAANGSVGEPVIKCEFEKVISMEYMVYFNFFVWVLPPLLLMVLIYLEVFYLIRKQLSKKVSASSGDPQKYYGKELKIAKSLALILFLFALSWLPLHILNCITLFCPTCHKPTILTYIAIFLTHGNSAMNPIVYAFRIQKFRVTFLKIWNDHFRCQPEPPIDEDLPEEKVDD

Adenosine receptor A1 [4] = biological target: T2, Adenosine receptor A1 (Rattus norvegicus, UniProt P25099); assay: Inhibition of [3H]CHA binding against Adenosine A1 receptors of rat cortical membranes; format: cell membranes, Membrane
T2 sequence (P25099 whole entry): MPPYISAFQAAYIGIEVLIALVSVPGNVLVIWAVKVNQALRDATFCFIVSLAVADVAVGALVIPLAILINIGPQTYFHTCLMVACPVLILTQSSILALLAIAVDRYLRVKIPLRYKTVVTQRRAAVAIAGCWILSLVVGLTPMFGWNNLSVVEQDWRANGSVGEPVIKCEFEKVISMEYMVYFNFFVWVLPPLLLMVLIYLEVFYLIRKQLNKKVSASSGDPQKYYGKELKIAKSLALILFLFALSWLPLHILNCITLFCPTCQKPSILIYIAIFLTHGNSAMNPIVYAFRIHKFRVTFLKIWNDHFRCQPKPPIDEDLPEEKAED

Adenosine receptor A1 [5] = biological target: T1, Adenosine receptor A1; assay: Inhibition of adenosine induced negative inotropic activity against guinea-pig atria (Adenosine A1 receptor) at 10 nM; format: functional

Compound	Urine volume (% of control) (Rattus norvegicus [1]) [%]	Sodium excretion (% of control) (Rattus norvegicus [2]) [%]	IC50 (Adenosine receptor A1 [3]) [nM]	IC50 (Adenosine receptor A1 [4]) [nM]	IC50 (Adenosine receptor A1 [5]) [nM]
CC[C@@H]1CCCCN1C(=O)/C=C/c1c(-c2ccccc2)nn2ccccc12	201	220			
O=C(/C=C/c1c(-c2ccccc2)nn2ccccc12)N1CCCCC1	195	179			
O=C(/C=C/c1c(-c2ccccc2)nn2ccccc12)N1CCCC[C@H]1CCO	272	280	0.56	17.2	
CC[C@H]1CCCCN1C(=O)/C=C/c1c(-c2ccccc2)nn2ccccc12	94	91			
O=C(/C=C/c1c(-c2ccccc2)nn2ccccc12)N1CCCC[C@@H]1CCO [FK453]	96	96		10100	
CCC1CCCCN1C(=O)/C=C/c1c(-c2ccccc2)nc2sc(C)nn12 (stereo unspecified)	242	278			91
